Assays:
[1] = tested on: Glomerella lagenarium (Colletotrichum lagenarium); test: Glomerella lagenarium (Colletotrichum lagenarium) / liquid culture (anthracnose); assay type: cell-based; details: Colletotrichum orbiculare, growth inhibition photometrically 3-4 days after application, compared to untreated control
Fusarium culmorum [2] = test: whole plant or invertebrate; assay type: in vivo; details: in Triticum aestivum, read-out: control of Fusarium culmorum
[3] = tested on: Botryotinia fuckeliana (Botrytis cinerea); test: Botryotinia fuckeliana (Botrytis cinerea) / liquid culture (gray mould); assay type: cell-based; details: 72 h, growth inhibition photometrically 3-4 days after application, compared to untreated control
[4] = tested on: Gibberella zeae (Fusarium graminearum); test: whole plant or invertebrate; assay type: in vivo; details: in Triticum aestivum, read-out: control of Gibberella zeae
[5] = tested on: Monographella nivalis (Microdochium nivale); test: Monographella nivalis (Microdochium nivale) / liquid culture (foot rot cereals); assay type: cell-based; details: 96 h, growth inhibition photometrically 4-5 days after application, compared to untreated control
Fusarium culmorum [6] = test: microbe, parasite or virus in culture; assay type: cell-based; details: 72 h, read-out: control of Fusarium culmorum
[7] = tested on: Magnaporthe grisea (Pyricularia oryzae); test: microbe, parasite or virus in culture; assay type: cell-based; details: 72 h, read-out: control of Magnaporthe grisea

Row | Compound | inhibition of growth at 20 ppm [1] | pest or weed control at 200 ppm (Fusarium culmorum [2]) | inhibition of growth at 20 ppm [3] | pest or weed control at 200 ppm [4] | melting point | inhibition of growth at 20 ppm [5] | inhibition of growth at 20 ppm (Fusarium culmorum [6]) | inhibition of growth at 20 ppm [7]
1 | CC(COC1CCC(F)(F)CC1)(CC(F)(F)F)NC(=O)c1cnc2c(F)cccc2c1 (stereo not drawn) [E.003, N-[1-[(4,4-difluoro-cyclohexoxy)-methyl]-3,3,3-trifluoro-1-methyl-propyl]-8-fluoro-quinoline-3-carboxamide] | ≥ 80% | ≥ 80% | ≥ 80% | ≥ 80% | 42 to 44 °C | ≥ 80% | ≥ 80% | ≥ 80%
2 | CC1(C)CC(OCC(C)(CC(F)(F)F)NC(=O)c2cnc3c(F)cccc3c2)C1 (stereo not drawn) [E.004, N-[1-[(3,3-dimethyl-cyclobutoxy)-methyl]-3,3,3-trifluoro-1-methyl-propyl]-8-fluoro-quinoline-3-carboxamide] | ≥ 80% | ≥ 80% | ≥ 80% | – | 80 to 84 °C | ≥ 80% | ≥ 80% | ≥ 80%
3 | C[C@](COC1CCCCC1)(CC(F)(F)F)NC(=O)c1cnc2c(F)cccc2c1 [E.016, N-[(1R)-1-(cyclo-hexoxymethyl)-3,3,3-trifluoro-1-methyl-propyl]-8-fluoro-quinoline-3-carboxamide] | ≥ 80% | ≥ 80% | ≥ 80% | – | 80 to 85 °C | ≥ 80% | ≥ 80% | ≥ 80%
4 | CC(COC1CCC1)(CC(F)(F)F)NC(=O)c1cnc2c(Cl)cccc2c1 (stereo not drawn) [E.012, 8-chloro-N-[1-(cyclobutoxymethyl)-3,3,3-trifluoro-1-methyl-propyl]-quinoline-3-carboxamide] | ≥ 80% | ≥ 80% | ≥ 80% | ≥ 80% | – | ≥ 80% | ≥ 80% | ≥ 80%
5 | CC(C)COCC(C)(CC(C)C)NC(=O)c1cnc2c(F)cccc2c1 (stereo not drawn) [E.025, 8-fluoro-N-[1-(iso-butoxymethyl)-1,3-dimethyl-butyl]-quinoline-3-carboxamide] | ≥ 80% | ≥ 80% | ≥ 80% | ≥ 80% | – | ≥ 80% | ≥ 80% | ≥ 80%
6 | COCC(C)(CC(C)C)NC(=O)c1cnc2c(F)cccc2c1 (stereo not drawn) [E.032, 8-fluoro-N-[1-(methoxymethyl)-1,3-dimethyl-butyl]quinoline-3-carboxamide] | – | – | ≥ 80% | – | 136 to 138 °C | – | ≥ 80% | –
7 | CC(COc1ccc(Cl)cc1)(CC(F)(F)F)NC(=O)c1cnc2c(F)cccc2c1 (stereo not drawn) [E.005, N-[1-[(4-chloro-phenoxy)methyl]-3,3,3-trifluoro-1-methyl-propyl]-8-fluoro-quinoline-3-carboxamide] | ≥ 80% | ≥ 80% | ≥ 80% | – | 94 to 96 °C | ≥ 80% | ≥ 80% | ≥ 80%
8 | CC1(C)CC(OCC(C)(CC(F)(F)F)NC(=O)c2cnc3c(Cl)cccc3c2)C1 (stereo not drawn) [E.002, 8-chloro-N-[1-[(3,3-dimethyl-cyclobutoxy)-methyl]-3,3,3-trifluoro-1-methylpropyl]-quinoline-3-carboxamide] | ≥ 80% | ≥ 80% | ≥ 80% | – | 127 to 130 °C | ≥ 80% | ≥ 80% | ≥ 80%
9 | Cc1c(C(=O)NC(C)(COC2CCC2)CC(F)(F)F)cnc2c(F)cccc12 (stereo not drawn) [E.007, N-[1-(cyclo-butoxymethyl)-3,3,3-trifluoro-1-methyl-propyl]-8-fluoro-4-methyl-quinoline-3-carboxamide] | ≥ 80% | ≥ 80% | ≥ 80% | ≥ 80% | – | ≥ 80% | ≥ 80% | ≥ 80%
10 | CC(C)CC(C)(COCc1ccccc1)NC(=O)c1cnc2c(F)cccc2c1 (stereo not drawn) [E.030, N-[1-(benzyloxy-methyl)-1,3-dimethyl-butyl]-8-fluoro-quinoline-3-carboxamide] | ≥ 80% | – | ≥ 80% | – | 120 to 122 °C | ≥ 80% | ≥ 80% | ≥ 80%
11 | CC(COC1CCCCC1)(CC(F)(F)F)NC(=O)c1cnc2c(F)cccc2c1 (stereo not drawn) [E.027, N-[1-(cyclohexoxy-methyl)-3,3,3-trifluoro-1-methyl-propyl]-8-fluoro-quinoline-3-carboxamide] | ≥ 80% | ≥ 80% | ≥ 80% | ≥ 80% | – | ≥ 80% | ≥ 80% | ≥ 80%
12 | CC(COC1CCCCCC1)(CC(F)(F)F)NC(=O)c1cnc2c(F)cccc2c1 (stereo not drawn) [E.026, N-[1-(cyclohept-oxymethyl)-3,3,3-trifluoro-1-methyl-propyl)-8-fluoro-quinoline-3-carboxamide] | ≥ 80% | ≥ 80% | ≥ 80% | – | 80 to 85 °C | ≥ 80% | ≥ 80% | ≥ 80%
13 | CC(C)(C)COCC(C)(CC(F)(F)F)NC(=O)c1cnc2c(F)cccc2c1 (stereo not drawn) [E.001, N-[1-(2,2-dimethyl-propoxymethyl)-3,3,3-trifluoro-1-methyl-propyl]-8-fluoro-quinoline-3-carboxamide] | ≥ 80% | ≥ 80% | ≥ 80% | ≥ 80% | 74 to 78 °C | ≥ 80% | ≥ 80% | ≥ 80%
14 | CC(COc1ccccc1)(CC(F)(F)F)NC(=O)c1cnc2c(F)cccc2c1 (stereo not drawn) [E.019, 8-fluoro-N-[3,3,3-trifluoro-1-methyl-1-(phenoxy-methyl)propyl]-quinoline-3-carboxamide] | ≥ 80% | ≥ 80% | ≥ 80% | ≥ 80% | – | ≥ 80% | ≥ 80% | ≥ 80%
15 | C=C(C)COCC(C)(CC(C)C)NC(=O)c1cnc2c(F)cccc2c1 (stereo not drawn) [E.020, N-[1,3-dimethyl-1-(2-methylallyloxy-methyl)butyl]-8-fluoro-quinoline-3-carboxamide] | ≥ 80% | ≥ 80% | ≥ 80% | ≥ 80% | – | ≥ 80% | ≥ 80% | ≥ 80%
